Data taken from US8569372B2, “Method for preventing or treating a disease, disorder or condition induced by retina ischemia” (priority 2011, dated 2013).

Columns and labels:
[1] = system: MMP-9; test: ELISA of MMP-9 protein in RGC-5 cells under H2O2 oxidative stress; format: cell-based; settings: 100 μM SAC 15-minute pre-treatment, 500 μM H2O2 24 hours; control 29.33±4.93, H2O2 100.70±18.80; n=6
Procedure: In the enzyme-linked immunosorbent assay (ELISA), the cells (2.5×10^4 in each well) were plated into 96-well plates. Each well contains 200 μl of DMEM (control) without or with H2O2. Next, the cells were incubated at 37° C. for 1 day and then shifted to serum free medium for the following day. In order to stimulate oxidative stress, 500 μM H2O2 (Sigma-Aldrich 18304/k0250, St Louis, Mo., USA) was then added for 24 hours as described elsewhere. Depending on the experimental protocol, SAC or vehicle was added to some samples 15 minutes before adding H2O2. […] Total protein was determined using a bicinchoninic acid protein kit (Thermo Fisher Scientific Inc., IL, U.S.A.). The HIF-1 Alpha/VEGF/MMP-9 levels in the cells/medium were measured using various ELISA kits, namely HIF-1 Alpha (Uscn Life Science Inc., Wuhan 430056, China); VEGF-A (BMS277/2, Bender […], Austria) and MMP-9 Duoset (D911, R&D, Minneapolis, Minn., U.S.A.). […] The HIF-1 Alpha/VEGF/MMP-9 concentration of each sample was determined by constructing a standard curve using 100 μl of sample diluent containing various amounts of HIF-1 Alpha/VEGF/MMP-9 pure protein (0-1000 pg/ml). […] The absorbance (optical intensity, O.D.) was detected at 450 nm by spectrophotometer (ELx800, Biotek, Winooski, Vt., U.S.A.). […]

[2] = system: ischaemic retina (HIOP induced retinal ischaemia/reperfusion); test: Flash ERG b-wave after high IOP induced retinal ischaemia/reperfusion, intravitreous pre-treatment; format: in vivo, Wistar rats; settings: for ERG b-wave ratio (ischaemic eye vs. fellow normal eye): n=6; for pre-ischaemia b-wave ratio baseline (day 0): day 0 baseline
Procedure: All investigations involving the use of animals conformed to the Association for Research in Vision and Ophthalmology Statement for the Use of Animals in Ophthalmology and Vision Research and were approved by the Institutional Review Board of Cheng Hsin General Hospital (Taipei, Taiwan). The six-week-old Wistar rats were kept in an animal house where the humidity was 40-60% and the temperature 19-23° C. They were kept on a 12-hour light/dark cycle with 12 to 15 air changes/hour. The animals were provided with food and water ad libitum.
The rats (200-250 g) were anaesthetized and placed in a stereotaxic frame. The anterior chamber of one eye was cannulated with a 30-gauge needle connected to a 0.9% saline reservoir; this caused a high IOP (HIOP) of 120 mmHg for 60 minutes. Eye fundus whitening and a low ERG response confirmed induction of an ischaemic insult. A sham procedure was carried out on the controls.
Drug administration involved the pre-administration (15-minute before 60-minute HIOP induced retinal ischaemia) of SAC (25, 50, 100 μM) or vehicle (saline; control). The ischemic eye of each test rat was treated with or without a single intravitreous injection of 5 μl of the test compound. In addition, SAC (100 μM) was administered to the non-ischaemic eye (normal) to see whether SAC has any adverse effects. In both cases, the paired normal eye was untreated.
Flash ERG recordings were performed on all rats before retinal ischaemia (day 0), as well as at 1, 3, 5, and 7 days after ischaemia and treatment with or without the defined chemicals. The animals were dark adapted and anaesthetized to do this. A strobe was placed 2 cm in front of the animal to provide a stimulus of 0.5 Hz. Fifteen consecutive responses were recorded at two-second intervals and at 10 kHz; the responses were amplified and averaged using an amplifier P511/regulated power supply RPS 107/stimulator PS22 (Grass-Telefactor; Astro-Med Inc., West Warwick, R.I., USA). For comparative purposes, the b-wave ratio, namely the b-wave amplitude of the ischaemic/sham-operation eye or the untreated/SAC-treated non-ischaemic (normal) eye as compared with that of the contralateral normal eye, was calculated.

ERG b-wave ratio (ischaemic eye vs. fellow normal eye) ([2]; 25 μM SAC, day 1 after I/R, vehicle 0.19±0.03): 0.47±0.10 | ERG b-wave ratio (ischaemic eye vs. fellow normal eye) ([2]; 25 μM SAC, day 3 after I/R, vehicle 0.18±0.05): 0.44±0.11 | ERG b-wave ratio (ischaemic eye vs. fellow normal eye) ([2]; 25 μM SAC, day 5 after I/R, vehicle 0.24±0.05): 0.54±0.09 | ERG b-wave ratio (ischaemic eye vs. fellow normal eye) ([2]; 25 μM SAC, day 7 after I/R, vehicle 0.18±0.02): 0.55±0.06 | ERG b-wave ratio (ischaemic eye vs. fellow normal eye) ([2]; 50 μM SAC, day 1 after I/R, vehicle 0.19±0.03): 0.56±0.03 | ERG b-wave ratio (ischaemic eye vs. fellow normal eye) ([2]; 50 μM SAC, day 3 after I/R, vehicle 0.18±0.05): 0.60±0.05 | ERG b-wave ratio (ischaemic eye vs. fellow normal eye) ([2]; 50 μM SAC, day 5 after I/R, vehicle 0.24±0.05): 0.65±0.02 | ERG b-wave ratio (ischaemic eye vs. fellow normal eye) ([2]; 50 μM SAC, day 7 after I/R, vehicle 0.18±0.02): 0.61±0.05 | ERG b-wave amplitude ([2]; 100 μM SAC intravitreous pre-treatment, 1 day after I/R, sham control 0.35 mV, vehicle 0.08 mV): 0.24 mV | ERG b-wave amplitude, % of the control value ([2]; 100 μM SAC pre-treatment, 1 day after I/R, vehicle 22.86%): 68.57 % of the control value | ERG b-wave ratio (ischaemic eye vs. fellow normal eye) ([2]; 100 μM SAC, day 1 after I/R, vehicle 0.19±0.03): 0.64±0.04 | ERG b-wave ratio (ischaemic eye vs. fellow normal eye) ([2]; 100 μM SAC, day 3 after I/R, vehicle 0.18±0.05): 0.79±0.03 | ERG b-wave ratio (ischaemic eye vs. fellow normal eye) ([2]; 100 μM SAC, day 5 after I/R, vehicle 0.24±0.05): 0.84±0.03 | ERG b-wave ratio (ischaemic eye vs. fellow normal eye) ([2]; 100 μM SAC, day 7 after I/R, vehicle 0.18±0.02): 0.84±0.04 | pre-ischaemia b-wave ratio baseline (day 0) ([2]; group pre-treated with 25 μM SAC): 1.08±0.07 | pre-ischaemia b-wave ratio baseline (day 0) ([2]; group pre-treated with 50 μM SAC): 0.98±0.04 | pre-ischaemia b-wave ratio baseline (day 0) ([2]; group pre-treated with 100 μM SAC): 0.92±0.04
Compound: C=CCSC[C@H](N)C(=O)O [SAC, S-allyl L-cysteine]
MMP-9 protein level (ELISA) [1]: 52.55 ± 2.72 pg/mL
